The text below walks through data of patent publication US11542255B2, “Sulfonylureas and sulfonylthioureas as NLRP3 inhibitors” (Inflazome Limited, priority 2017, dated 2023).

Where a name gives a salt, the structure may show the parent alone. A value given as a limit tells only on which side of the number the result lay.

Data set [1] addresses T1, NLRP3 (Homo sapiens, UniProt Q96P20). Put plainly: THP-1 cells pyroptosis assay (LPS + nigericin, resazurin readout). The class given is cell-based. On the set-up: Seed THP-1 cells (25,000 cells/well) containing 1.0 μg/ml LPS in 40 μl of RPMI medium; host or cells: THP-1 cells. Particulars: NLRP3 inhibitory activity, 1.0 μg/ml LPS, 5 μM nigericin. The method in brief:
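LPS-primed (1 μg/ml) THP-1 cells, 25,000/well in serum-free RPMI, given compound (8-point half-log, 10 μM top; 0.1% DMSO) for 3 h at 37 °C, then nigericin 5 μM for 1 h. Viability by resazurin (100 μM, 1-2 h), Ex 560/Em 590 nm; IC50 from 4-parameter variable-slope fit.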
On the technique in general: Resazurin is reduced to fluorescent resorufin, in cell work by metabolically active cells.

The target of data set [2] is T1, NLRP3. Nature of the data set: Human whole blood IL1β release assay (LPS + nigericin, AlphaLisa IL-1β). The following applies: NLRP3 inhibitory activity, 1 μg/ml LPS, 10 μM nigericin, IL-1β release, read-out: HWB IC50. The class given is cell-based. Also noted: Human whole blood in Li-heparin tubes was obtained from healthy donors from a volunteer donor panel; from tissue; host or cells: human whole blood from healthy donors. The method in brief: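 Donor human whole blood (Li-heparin) was primed with 1 μg/mL LPS while incubated with compound (8-point half-log, 10 μM top, 0.1% DMSO) for 3 h at 37° C., then stimulated with 10 μM nigericin for 1 h. Supernatant IL-1β measured by AlphaLISA; IC50 from 4-parameter nonlinear fit.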
For orientation: Bead proximity is the source of the signal in Alpha formats.

The nature of data set [3]: PK protocol, intravenous administration. The class given is in vivo, male Sprague Dawley rats. Particulars: male, Sprague Dawley, rat, plasma, dose (mg/kg); for Vd: read-out: Vdss. The procedure:
Pharmacokinetic parameters were determined in male Sprague Dawley rats (Charles River, UK, 250-350 g; or Vital River Laboratory Animal Technology Co Ltd, Beijing, China, 7-9 weeks old). Animals were individually housed during the study and maintained under a 12 h light/dark cycle. Animals had free access to food and water except that some orally dosed animals were food deprived overnight prior to the study.
For intravenous administration, compounds were formulated as a solution in water or […] in 2 mL/kg dosing volume and administered via tail vein. For oral administration, compounds were formulated as a solution in water or DMSO:water [10:90] in 5 mL/kg dosing volume and administered orally.
Serial blood samples (about 120-300 μL) were taken from each animal at each of 8 time-points post dose (0.083, 0.25, 0.5, 1, 2, 4, 8 and 24 h) or at each of 12 time-points post dose (0.03, 0.1, 0.17, 0.25, 0.5, 1, 2, 4, 6, 8, 12 and 24 h) or pre-dose and at each of 9 time-points post dose (0.25, 0.5, 1, 2, 4, 6, 8, 12 and 24 h). Samples were held on ice for no longer than 30 minutes before centrifugation (10,000 rpm (8,385 g) for 3 minutes; or 5,696 rpm (3,0009 for 15 minutes) for plasma generation. Plasma was frozen on dry ice prior to boanalysis. PK parameters were generated from LC-MS/MS data using Dotmatics or Phoenix WinNonlin 6.3 software.

T1 sequence (Q96P20 whole entry): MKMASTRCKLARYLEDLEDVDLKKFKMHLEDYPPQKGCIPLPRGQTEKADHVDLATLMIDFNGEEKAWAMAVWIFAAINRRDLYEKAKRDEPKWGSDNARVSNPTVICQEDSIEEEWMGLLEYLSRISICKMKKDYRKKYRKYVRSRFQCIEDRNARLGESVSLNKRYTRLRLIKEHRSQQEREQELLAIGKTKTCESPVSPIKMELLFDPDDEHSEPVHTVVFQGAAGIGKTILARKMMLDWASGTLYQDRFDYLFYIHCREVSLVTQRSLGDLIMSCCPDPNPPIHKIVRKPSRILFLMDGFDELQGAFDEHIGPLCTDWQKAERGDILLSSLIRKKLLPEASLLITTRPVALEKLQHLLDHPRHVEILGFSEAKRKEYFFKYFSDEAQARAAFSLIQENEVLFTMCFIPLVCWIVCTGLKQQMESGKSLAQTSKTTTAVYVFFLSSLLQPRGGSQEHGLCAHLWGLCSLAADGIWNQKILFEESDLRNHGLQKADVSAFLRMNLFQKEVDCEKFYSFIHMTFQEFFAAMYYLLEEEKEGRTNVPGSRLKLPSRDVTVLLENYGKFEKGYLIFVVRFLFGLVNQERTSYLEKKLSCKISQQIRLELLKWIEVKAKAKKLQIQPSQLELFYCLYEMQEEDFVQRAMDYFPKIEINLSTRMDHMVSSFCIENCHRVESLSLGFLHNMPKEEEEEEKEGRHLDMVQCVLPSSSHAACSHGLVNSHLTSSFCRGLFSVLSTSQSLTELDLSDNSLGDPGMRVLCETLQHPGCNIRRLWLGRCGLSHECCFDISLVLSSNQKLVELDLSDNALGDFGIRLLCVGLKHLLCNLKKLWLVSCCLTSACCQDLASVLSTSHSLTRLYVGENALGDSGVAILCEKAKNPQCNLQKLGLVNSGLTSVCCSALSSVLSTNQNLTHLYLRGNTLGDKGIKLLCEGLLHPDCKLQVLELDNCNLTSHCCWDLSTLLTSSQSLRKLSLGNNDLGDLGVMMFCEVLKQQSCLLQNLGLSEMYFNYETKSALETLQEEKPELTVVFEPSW

For orientation: IC50 means the concentration that inhibits the measured activity by half. By AUC is commonly meant concentration integrated over time. Low values mean low exposure, high ones high exposure. Usually clearance stands for the volume of plasma or blood freed of the substance per unit of time. Low readings indicate inefficient removal, high ones efficient removal. What is called half-life is the time in which the quantity being followed falls by half. Lower therefore signals rapid decline. Consider `CC(c1cc(S(=O)(=O)NC(=O)Nc2c3c(cc4c2CCC4)CCC3)nn1C)N1CCC1` (single isomer, unassigned; enantiomer 2) [Example 27, 5-(1-(Azetidin-1-yl)ethyl)-N-((1,2,3,5,6,7-hexahydro-s-indacen-4-yl)carbamoyl)-1-methyl-1H-pyrazole-3-sulfonamide, Sodium Salt (Enantiomer 2)], for which the IC50 at NLRP3 [1] lay in the range of 40 to 160 nM. Moreover, the IC50 on NLRP3 [2] was below 400 nM. Moreover, in data set [3], the AUC amounted to 3900 ng·h/mL, the clearance came to 4.3 mL/min/kg, the half-life is 1.1 h and the Vd was determined as 0.33 L/kg.
As for `CCC(c1cc(S(=O)(=O)NC(=O)Nc2c3c(cc4c2CCC4)CCC3)nn1C)N(C)C` (single isomer, unassigned; enantiomer 2) [Example 72, 5-(1-(Dimethylamino)propyl)-N-((1,2,3,5,6,7-hexahydro-s-indacen-4-yl)carbamoyl)-1-methyl-1H-pyrazole-3-sulfonamide, Enantiomer 2], the IC50 at NLRP3 [1] is below 40 nM. In addition, the IC50 at NLRP3 [2] was below 400 nM. In addition, in data set [3], the AUC came out at 2780 ng·h/mL, the clearance is 8.5 mL/min/kg, the half-life is 2.4 h and the Vd was determined as 0.51 L/kg.
As for `CN(C)CCn1nc(S(=O)(=O)NC(=O)Nc2c3c(cc4c2CCC4)CCC3)cc1CN(C)C` [Example 3, 1-(2-(Dimethylamino)ethyl)-5-((dimethylamino)methyl)-N-((1,2,3,5,6,7-hexahydro-s-indacen-4-yl)carbamoyl)-1H-pyrazole-3-sulfonamide], at NLRP3 [1], the IC50 was below 40 nM. Besides, the IC50 at NLRP3 [2] was below 400 nM. Further, in data set [3], the AUC worked out at 1130 ng·h/mL, the clearance was 37 mL/min/kg, the half-life is 1.3 h and the Vd came out at 1.32 L/kg.
As to `CN(C)CCn1nc(S(=O)(=O)NC(=O)Nc2c3c(cc4c2CCC4)CCC3)cc1C(C)(C)O` [Example 4, 1-(2-(Dimethylamino)ethyl)-N-((1,2,3,5,6,7-hexahydro-s-indacen-4-yl)carbamoyl)-5-(2-hydroxypropan-2-yl)-1H-pyrazole-3-sulfonamide], on NLRP3 [1], the 50% inhibitory concentration (IC50) was 40 to 160 nM. The IC50 on NLRP3 [2] lay in the range of 400 to 800 nM. In data set [3], the AUC amounted to 3780 ng·h/mL, the clearance was found to be 4.4 mL/min/kg, the half-life was 1.6 h and the Vd was 0.12 L/kg.
As to `CCC(c1cc(S(=O)(=O)NC(=O)Nc2c3c(cc4c2CCC4)CCC3)nn1C1CC1)N(C)C` (centres unmarked) [Example 24, 1-Cyclopropyl-5-(1-(dimethylamino)propyl)-N-((1,2,3,5,6,7-hexahydro-s-indacen-4-yl)carbamoyl)-1H-pyrazole-3-sulfonamide], on NLRP3 [1], the IC50 was below 40 nM. Besides, on NLRP3 [2], the IC50 was below 400 nM. In data set [3], the exposure (AUC) was 1280 ng·h/mL, the clearance is 13 mL/min/kg, the half-life is 1 h and the Vd came to 0.84 L/kg.
On to `CC(c1cc(S(=O)(=O)NC(=O)Nc2c3c(cc4c2CCC4)CCC3)nn1C1CC1)N1CCC1` (centres unmarked) [Example 25, 5-(˜(Azetidin-1-yl)ethyl)-1-cyclopropyl-N-((1,2,3,5,6,7-hexahydro-s-indacen-4-yl)carbamoyl)-1H-pyrazole-3-sulfonamide], for which, at NLRP3 [1], the IC50 is below 40 nM. At NLRP3 [2], the concentration for half-maximal inhibition (IC50) was below 400 nM. Further, in data set [3], the AUC was 3460 ng·h/mL, the clearance is 10 mL/min/kg, the half-life is 1 h and the Vd is 0.58 L/kg.
For `O=C(Nc1c2c(cc3c1CCC3)CCC2)NS(=O)(=O)c1cc(CN2CCC2)n(C2CC2)n1` [Example 30, 5-(Azetidin-1-ylmethyl)-1-cyclopropyl-N-((1,2,3,5,6,7-hexahydro-s-indacen-4-yl)carbamoyl)-1H-pyrazole-3-sulfonamide], on NLRP3 [1], the IC50 lay within 40 to 160 nM. Also, the IC50 on NLRP3 [2] was 400 to 800 nM. In data set [3], the exposure (AUC) was found to be 6210 ng·h/mL, the clearance came to 2.7 mL/min/kg, the half-life was 2.8 h and the Vd turned out to be 0.53 L/kg.
As to `Cn1nc(S(=O)(=O)[N-]C(=O)Nc2c3c(cc4c2CCC4)CCC3)cc1C[N+](C)(C)C` [Example 44, ((1,2,3,5,6,7-Hexahydro-s-indacen-4-yl)carbamoyl)((1-methyl-5-((trimethylammonio)methyl)-1H-pyrazol-3-yl)sulfonyl)amide], the IC50 on NLRP3 [1] lay in the range of 640 to 2560 nM. Also, the IC50 on NLRP3 [2] was below 400 nM. In data set [3], the AUC is 3120 ng·h/mL, the clearance is 5.3 mL/min/kg, the half-life was 1.2 h and the Vd was 0.21 L/kg.
For `CCn1nc(S(=O)(=O)NC(=O)Nc2c3c(cc4c2CCC4)CCC3)cc1CN1CCC1` [Example 49, 5-(Azetidin-1-ylmethyl)-1-ethyl-N-((1,2,3,5,6,7-hexahydro-s-indacen-4-yl)carbamoyl)-1H-pyrazole-3-sulfonamide], the IC50 at NLRP3 [1] lay within 40 to 160 nM. Also, the IC50 at NLRP3 [2] is below 400 nM. Further, in data set [3], the AUC stood at 6630 ng·h/mL, the clearance amounted to 2.7 mL/min/kg, the half-life is 2.2 h and the Vd turned out to be 0.34 L/kg.
Consider `CCn1nc(S(=O)(=O)NC(=O)Nc2c3c(cc4c2CCC4)CCC3)cc1CN(C)C` [Example 52, 5-((Dimethylamino)methyl)-1-ethyl-N-((1,2,3,5,6,7-hexahydro-s-indacen-4-yl)carbamoyl)-1H-pyrazole-3-sulfonamide], for which the IC50 on NLRP3 [1] is below 40 nM. The IC50 on NLRP3 [2] was below 400 nM. In data set [3], the AUC was 7970 ng·h/mL, the clearance came to 3.5 mL/min/kg, the half-life is 1.5 h and the Vd amounted to 0.39 L/kg.
Take `CCC(c1cc(S(=O)(=O)NC(=O)Nc2c3c(cc4c2CCC4)CCC3)nn1C(C)C)N(C)C` (centres unmarked) [Example 63, 5-(1-(Dimethylamino)propyl)-N-((1,2,3,5,6,7-hexahydro-s-indacen-4-yl)carbamoyl)-1-isopropyl-1H-pyrazole-3-sulfonamide]: on NLRP3 [1], the IC50 was below 40 nM. The IC50 on NLRP3 [2] was below 400 nM. In data set [3], the AUC is 4010 ng·h/mL, the clearance amounted to 4.2 mL/min/kg, the half-life was 0.8 h and the Vd turned out to be 0.25 L/kg.
For `CC(c1cc(S(=O)(=O)NC(=O)Nc2c3c(cc4c2CCC4)CCC3)nn1C(C)C)N(C)C` (centres unmarked) [Example 73, 5-(1-(Dimethylamino)ethyl)-N-((1,2,3,5,6,7-hexahydro-s-indacen-4-yl)carbamoyl)-1-isopropyl-1H-pyrazole-3-sulfonamide], at NLRP3 [1], the IC50 is below 40 nM. The IC50 on NLRP3 [2] was below 400 nM. Besides, in data set [3], the AUC was found to be 4250 ng·h/mL, the clearance was determined as 4.3 mL/min/kg, the half-life was 3.5 h and the Vd was 0.51 L/kg.
On to `CC(c1cc(S(=O)(=O)NC(=O)Nc2c3c(cc4c2CCC4)CCC3)nn1C)N(C)C` (centres unmarked) [Example 77, 5-(1-(Dimethylamino)ethyl)-N-((1,2,3,5,6,7-hexahydro-s-indacen-4-yl)carbamoyl)-1-methyl-1H-pyrazole-3-sulfonamide], for which the IC50 at NLRP3 [1] was below 40 nM. Moreover, the half-inhibitory concentration (IC50) on NLRP3 [2] is below 400 nM. Further, in data set [3], the AUC was 4440 ng·h/mL, the clearance was 3.8 mL/min/kg, the half-life was 3.5 h and the Vd is 0.38 L/kg.
With `CCN(C)Cc1cc(S(=O)(=O)NC(=O)Nc2c3c(cc4c2CCC4)CCC3)nn1C` [Example 84, 5-((Ethyl(methyl)amino)methyl)-N-((1,2,3,5,6,7-hexahydro-s-indacen-4-yl)carbamoyl)-1-methyl-1H-pyrazole-3-sulfonamide], on NLRP3 [1], the IC50 lay in the range of 40 to 160 nM. On NLRP3 [2], the 50% inhibitory concentration (IC50) lay in the range of 400 to 800 nM. In addition, in data set [3], the AUC is 2490 ng·h/mL, the clearance was 6.7 mL/min/kg, the half-life was 1 h and the Vd was 0.47 L/kg.
Turning to `Cn1nc(S(=O)(=O)NC(=O)Nc2c3c(cc4c2CCC4)CCC3)cc1CN1CCC1` [Example 86, 5-(Azetidin-1-ylmethyl)-N-((1,2,3,5,6,7-hexahydro-s-indacen-4-yl)carbamoyl)-1-methyl-1H-pyrazole-3-sulfonamide, Sodium Salt], the half-maximal inhibitory concentration (IC50) on NLRP3 [1] was in the range of 160 to 640 nM. Moreover, at NLRP3 [2], the half-inhibitory concentration (IC50) is 800 to 1600 nM. Besides, in data set [3], the AUC stood at 4400 ng·h/mL, the clearance is 3.8 mL/min/kg, the half-life was 3.2 h and the Vd came to 0.48 L/kg.
For the molecule `CC(C)n1nc(S(=O)(=O)NC(=O)Nc2c3c(cc4c2CCC4)CCC3)nc1CN(C)C` [Example 187], the values for the IC50 at NLRP3 [1] and at NLRP3 [2] were below 40 nM and 800 to 1600 nM, respectively.
